Reference: article PMC9404989, “Design and Evaluation of Short Bovine Lactoferrin-Derived Antimicrobial Peptides against Multidrug-Resistant Enterococcus faecium” (Antibiotics, 2022)

Test system: E. faecium
Test: Antibacterial activity of native LfcinB6
Type: cell-based, Enterococcus faecium
Conditions: strain and source not given

RRWQWR [LfcinB6]
activity against E. faecium: inactive
